Source: patent US20220040136A1, “TREATMENT OF VULVOVAGINAL DISORDERS” (University of Rochester, priority 2018, published 2022)

What was measured:
Mouse vulvar tissue = test: Mouse vulvar explants (4 mm punch biopsy), IL-1β-stimulated PGE2 production; assay type: cell-based; conditions: pre-treatment 18 hours, then IL-1β 10 pg/ml 18 hours; range of doses, as low as 1 nM; FIG. 6
Procedure: FIG. 6 is a diagram showing that SPMs inhibit PGE2 production from mouse vulvar tissue. Mouse vulvar tissue (4 mm punch biopsies) was collected and bisected then pre-treated in culture medium with either Maresin 1 or RvD2 at indicated concentrations for 18 hours, followed by an additional 18 hours stimulation with IL-1β (10 pg/ml). Culture medium was collected and analyzed for PGE2 content. Mean+/−SEM; n=3 replicate cultures. ANOVA * p<0.05 vs. vehicle.
Although SPM structure and therapeutic efficacy is conserved across species,^5-7 inventors first confirmed that mouse vulvar tissues responded to SPM treatment in vitro by culturing mouse vulvar explants (4 mm punch biopsy). The explants were stimulated with IL-1, and then assays were carried to assess the ability of Maresin 1 or RvD2 to reduce PGE2 production under the established pre-treatment regimen.

human vulvar fibroblasts = test: In vitro LPV model: SPM post-treatment of already activated patient fibroblasts, IL-6 and PGE2; assay type: cell-based; conditions: post-treatment: IL-1β 30 min, then 5 nM SPM 18 hours, booster dose 6 hr
Procedure: FIGS. 5A, 5B, 5C, and 5D are a set of diagrams showing that PGE2 and IL-6 production is reduced by SPMs. Patient vestibular or vulvar fibroblasts were pre-treated for 10 hours with Lipoxin A4 (LxA4), Resolvin D2 (RvD2), (7R)-Maresin 1 or epi(7S)-Maresin 1 at a 5 nM concentration, then activated with IL-1β (Panel A; 10 pg/ml) or bradykinin (Panel B; 100 nM) for 48 hr. Culture media were collected and analyzed for PGE2 (Panel A) or IL-6 (Panel B) content. Patient fibroblasts were also activated first with IL-1β for 30 min then treated with 5 nM (7R)-Maresin 1 or LXA4 for 18 hours, followed by a booster dose for 6 hr. Culture media were collected and analyzed for PGE2 (Panel C) or IL-6 (Panel D) content. Mean+/−SEM of n=3, ANOVA *p<0.05 vs. activation only (no SPM).
FIGS. 24A and 24B are diagrams showing that six SPMs are effective in reducing IL-6 and PGE2 production from fibroblasts when used as a post-treatment. Patient vestibular or vulvar fibroblasts were activated first with IL-1β for 30 min then treated with RvD3, RvD4, RvD5, RvE1, Protectin D1 or Protectin DX at a 5 nM concentration for 18 hours, followed by a booster SPM dose for 24 hr. Culture media were collected and analyzed for IL-6 (Panel A) and PGE2 (Panel B) content. Mean+/−SEM of n=6 (two cases run in triplicate), ANOVA *p<0.05 vs. activation only (IL-1b). […] The magnitude of reduction was not as great as pre-treatment, but equally significant as the reduction from pre-treatment regimens.
In this example, a fibroblast-based in vitro LPV model was established. Briefly, fibroblast strains were obtained from two regions (FIG. 1) of the lower genital tract of localized provoked vulvodynia (LPV) cases and pain-free controls in the manner described in Falsetta et al. Am J Obstet Gynecol 2015, vol. 213, pp. 38 e1-12 and Foster et al., Pain 2015, vol. 156, pp. 386-96.
Over 30 paired fibroblast strains obtained from LPV-afflicted cases (fulfilling Friedrich's Criteria)^25 and age/race-matched (critical variables influencing LPV),^26, 27 pain-free controls were obtained. All subjects who contributed to the library were premenopausal, denied oral corticosteroids, non-steroidal, immunomodulatory, or anti-inflammatory medication use, and reported an absence of systemic/cutaneous inflammatory conditions at the time of sample collection. Mechanical pain thresholds were determined (via a method of limits) (0.5-5 N) using a Wagner algometer. Fibroblast identity was confirmed by microscopy and fibroblast markers (vimentin, collagen); only low passage (˜4) cells are used.
Synthesized, purified and commercially available SPMs from each known SPM class (E-series Resolvins, D-series Resolvins, Maresins, Protectins and Lipoxins) at low/nanomolar concentrations (1-100 nM) were tested. […] The inventors used one of two treatment regimens proven effective in vulvar fibroblasts and other cells: 1) overnight pre-treatment, followed by another treatment 30 min prior to stimulation with proinflammatory stimuli for 48 hr with a third dose of SPMs at 24 hr post-challenge, or 2) post-treatment with SPMs after a 30 min pre-treatment with inflammatory stimuli, followed by a booster dose 18 hr later. Both treatment regimens are of interest, as SPMs are active throughout the inflammatory process.^5-7 Even SPMs administered after LPV onset are likely to prevent the worsening or spread of LPV pain.

With `CC/C=C\C/C=C\C[C@H](O)\C=C/C=C/C=C/[C@H](O)C/C=C\CCC(=O)O` [Maresin 1, 7R,14S-docosa-4Z,8E,10E,12Z,16Z,19Z-hexaenoic acid] the “PGE2 responses following IL-1β treatment” value (Mouse vulvar tissue) was “significantly suppressed”, the PGE2 levels (human vulvar fibroblasts; FIG. 5C) was “significantly reduced” and the IL-6 levels (human vulvar fibroblasts; FIG. 5D) was “significantly reduced”.
